Source: ChEMBL document CHEMBL1149557, “Induction of GRP78 by valproic acid is dependent upon histone deacetylase inhibition” (2007)
One block for each compound: values may come before it. Activity calls are given as the source filed them. No cut-off for these calls is given here.

What was measured:
[1] = test system: HEK293; assay: Increase in protein disulfide isomerase level in HEK293 cells at 10 ug/ml by immunoblot; type: functional, cell-based; conditions: Homo sapiens
[2] = test system: HEK293; assay: Induction of GADD153/CHOP protein level in HEK293 cells by immunoblot; type: functional, cell-based; conditions: Homo sapiens
[3] = test system: HEK293; assay: Increase in GRP78 protein level in HEK293 cells at 10 ug/mL by immunoblot; type: functional, cell-based; conditions: Homo sapiens
[4] = test system: HEK293; assay: Increase in GRP78 protein level in HEK293 cells at 2 mM by immunoblot; type: functional, cell-based; conditions: Homo sapiens
[5] = biological target: Glycogen synthase kinase-3 beta (Homo sapiens) (UniProt P49841); assay: Inhibition of GSK3-beta at 2 mM relative to control
Glycogen synthase kinase-3 beta (Homo sapiens), sequence (P49841 whole entry, looked up): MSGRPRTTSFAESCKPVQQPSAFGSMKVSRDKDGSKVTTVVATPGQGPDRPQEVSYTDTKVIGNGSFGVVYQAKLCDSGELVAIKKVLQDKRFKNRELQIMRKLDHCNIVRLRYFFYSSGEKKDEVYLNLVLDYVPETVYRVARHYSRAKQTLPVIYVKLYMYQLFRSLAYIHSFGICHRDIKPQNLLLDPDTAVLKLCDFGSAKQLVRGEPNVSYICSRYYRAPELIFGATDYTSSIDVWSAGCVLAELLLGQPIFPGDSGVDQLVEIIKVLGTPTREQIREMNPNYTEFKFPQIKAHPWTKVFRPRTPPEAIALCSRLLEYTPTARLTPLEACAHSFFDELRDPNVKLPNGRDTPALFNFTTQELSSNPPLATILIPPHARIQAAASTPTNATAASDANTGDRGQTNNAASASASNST

[6] = biological target: T1, Histone deacetylase (Homo sapiens) (UniProt Q13547+O15379+Q9UBN7+Q92769+Q9UQL6+Q8WUI4+Q9BY41+Q96DB2+P56524+Q9UKV0+Q969S8); assay: Inhibition of HDAC in HEK293 cells assessed as increase in histone H4 acetylation at 2 mM after 48 hrs; type: cell-based
[7] = test system: HEK293; assay: Increase in protein disulfide isomerase level in HEK293 cells at 2 mM by immunoblot; type: functional, cell-based; conditions: Homo sapiens
[8] = test system: HEK293; assay: Increase in protein disulfide isomerase level in HEK293 cells at 600 nM by immunoblot; type: functional, cell-based; conditions: Homo sapiens
[9] = test system: HEK293; assay: Increase in GRP78 protein level in HEK293 cells at 600 nM by immunoblot; type: functional, cell-based; conditions: Homo sapiens
[10] = test system: HEK293; assay: (§1) Increase in GRP78 protein level in HEK293 cells at 1 mM by immunoblot; type: functional, cell-based; conditions: Homo sapiens
[11] = test system: HEK293; assay: as §1; type: functional, Homo sapiens
[12] = test system: HEK293; assay: Increase in protein disulfide isomerase level in HEK293 cells at 1 mM by immunoblot; type: functional, cell-based; conditions: Homo sapiens
[13] = biological target: T1, Histone deacetylase (Homo sapiens); assay: Inhibition of HDAC in HEK293 cells assessed as increase in histone H4 acetylation at 1 mM after 48 hrs relative to control; type: cell-based

SMILES: CC(=O)N[C@H]1[C@@H](O[C@@H]2O[C@H](CC(O)[C@H]3O[C@@H](n4ccc(=O)[nH]c4=O)[C@H](O)[C@@H]3O)[C@H](O)[C@H](O)[C@H]2NC(=O)/C=C/CC(C)C)O[C@H](CO)[C@@H](N)[C@@H]1O (some centres undefined)
- Activity [1]: Active
- Activity [2]: Active
- Activity [3]: Active

SMILES: O=C(O)CCCc1ccccc1
- inhibition [5]: 126%
- Activity [6]: inactive

SMILES: CC(/C=C/C(=O)NO)=C\[C@@H](C)C(=O)c1ccc(N(C)C)cc1
- Activity [8]: Active
- Activity [9]: Active

More lines, main results first:

- inhibition [5]: 2.9%
- Activity [6]: inactive
SMILES: CCC(CC)C(=O)O
- Activity [4]: inactive

- inhibition [5]: 91.3%
- Activity [6]: Active
SMILES: CC/C=C(\CCC)C(=O)O
- Activity [4]: Active
- Activity [7]: Active

- Fold change [13]: 3.5
- inhibition [5]: 65.2%
SMILES: CCCC(CCC)C(=O)O [VALPROIC ACID]
- Activity [10]: Active
- Fold change [11]: 2
- Activity [12]: Active
